Source: US12070505B2, “Targeted peptide-drug conjugates” (priority 2021, dated 2024)
Where two headings read alike, the source gives them in different places.

Columns and labels:
[1] = Cytotoxicity, MTS assay, normal heart muscle cells (Example 1); settings: rat, H9C2 heart/myocardium cells
Experimental: (§1) In Vitro Cytotoxicity Assay of Peptide-Drug Conjugates. The cytotoxicity of the compounds was determined by using human leukemia cell line (CCRF-CEM), human ovarian adenocarcinoma cells (SKOV-3) cells, kidney cell line (LLC-PK1), gastric adenocarcinoma cells (AGS), and heart/myocardium cells (H9C2) to evaluate the toxicity of the generated peptides according to a previously reported procedure (Rahman, A.; et al. Proc. Am. Assoc. Cancer Res. 26:2295-2299, 1985, which is incorporated herein by reference). In brief, CCRF-CEM cells were seeded at 50,000 cells in 0.1 mL per well in 98-well plates. In the case of other cell lines, the cells were seeded at 5,000 cells (0.1 mL per well in 96-well plates). The cells were seeded in medium (RPMI-1640 containing FBS (10%)), 24 h prior to the experiment. The compounds at different concentrations (10-50 μM) were added to each well in triplicate and incubated for 24 and 72 h at 37° C. in a humidified atmosphere of 5% CO2. Dox (5 μM) was used as a positive control, while water and cell culture medium were used as negative controls. The compounds were dissolved in water; water was used as a negative control to normalize the data. After the incubation period, MTS reagent (20 μL) was added to each well. The incubation was continued for 2 h. Cell viability was then determined by determination of the fluorescence intensity at 490 nm using a SpectraMax M2 microplate spectrophotometer.

[2] = system: H9C2 cells; experiment: as above
Experimental: as §1

[3] = system: uterine sarcoma cells (MES-SA/MX2)
Experimental: (§2) In Vitro Cytotoxicity Assay of Peptide-Drug Conjugates. […] In brief, CCRF-CEM cells were seeded at 50,000 cells in 0.1 mL per well in 98-well plates. In the case of other cell lines, the cells were seeded at 5,000 cells (0.1 mL per well in 96-well plates). […] Dox (5 μM) was used as a positive control, while water and cell culture medium were used as negative controls. The compounds were dissolved in water; water was used as a negative control to normalize the data. After the incubation period, MTS reagent (20 μL) was added to each well. The incubation was continued for 2 h. Cell viability was then determined by determination of the fluorescence intensity at 490 nm using a SpectraMax M2 microplate spectrophotometer. The percentage of cell viability was then calculated using the following equation: [(OD value of cells treated with the compound)−(OD value of culture medium)]/[(OD value of control cells)−(OD value of culture medium)]×100% (FIGS. 6-9).

[4] = system: CCRF-CEM cells; settings: 3 h incubation; cited from earlier work
[5] = system: gastric adenocarcinoma cells (AGS); experiment: Cytotoxicity, MTS cell viability assay, AGS; settings: for reduction of cell survival: 72 h
Experimental: as §2

[6] = Cytotoxicity, MTS assay, normal kidney cells; settings: pig, LLC-PK1 kidney cells
Experimental: as §1

[7] = system: LLC-PK1 kidney cells; experiment: Cytotoxicity, MTS assay, normal kidney cells; settings: for Cell Viability (%) after 24 h / Cell Viability (%) after 72 h: normal kidney LLC-PK1
Experimental: as §1

[8] = system: CCRF-CEM cells; experiment: Cytotoxicity, MTS cell viability assay, CCRF-CEM
Experimental: as §2

[9] = system: SK-OV-3 cells; experiment: Cytotoxicity, MTS cell viability assay, SK-OV-3 (Example 1)
Experimental: as §2

## COc1cccc2c1C(=O)c1c(O)c3c(c(O)c1C2=O)C[C@@](O)(C(=O)CO)C[C@@H]3O[C@H]1C[C@H](NC(=N)CCCSSC[C@H](NC(C)=O)C(=O)N[C@@H](Cc2c[nH]c3ccccc23)C(=O)N[C@@H](Cc2c[nH]c3ccccc23)C(=O)N[C@@H](Cc2c[nH]c3ccccc23)C(=O)N[C@@H](Cc2c[nH]c3ccccc23)C(=O)N[C@@H](Cc2c[nH]c3ccccc23)C(=O)N[C@@H](Cc2c[nH]c3ccccc23)C(=O)N[C@@H](Cc2c[nH]c3ccccc23)C(=O)NCCCC[C@@H]2NC(=O)[C@H](CCCNC(=N)N)NC(=O)[C@H](CCCNC(=N)N)NC(=O)[C@H](CCCNC(=N)N)NC(=O)[C@H](CCCNC(=N)N)NC(=O)[C@H](CCCNC(=N)N)NC2=O)[C@H](O)[C@H](C)O1 [[R5K]W7C-S-S-Dox]
[1]
  viability at 24 h, 5 µM: 98 ± 1%
  viability at 24 h, 10 µM: 91 ± 1%
  viability at 24 h, 25 µM: 92 ± 1%
  viability at 72 h, 5 µM: 106 ± 1%
  viability at 72 h, 10 µM: 117 ± 1%
  viability at 72 h, 25 µM: 105 ± 2%
  viability at 96 h, 5 µM: 104 ± 1%
  viability at 96 h, 10 µM: 113 ± 3%
  viability at 96 h, 25 µM: 108 ± 1%
[2]; H9C2, 5-10 and 25 μM, any incubation time
  cytotoxicity: did not show any cytotoxicity

## N=C(N)NCCC[C@@H]1NC(=O)[C@H](CCCCNC(=O)[C@H](Cc2c[nH]c3ccccc23)NC(=O)[C@H](Cc2c[nH]c3ccccc23)NC(=O)[C@H](Cc2c[nH]c3ccccc23)NC(=O)[C@H](Cc2c[nH]c3ccccc23)NC(=O)[C@H](Cc2c[nH]c3ccccc23)NC(=O)[C@H](Cc2c[nH]c3ccccc23)NC(=O)[C@H](Cc2c[nH]c3ccccc23)NC(=O)CCN)NC(=O)[C@H](CCCNC(=N)N)NC(=O)[C@H](CCCNC(=N)N)NC(=O)[C@H](CCCNC(=N)N)NC(=O)[C@H](CCCNC(=N)N)NC1=O [[R5K]W7A]
[3]; 10 μM
  Cell Viability (%) after 72 h: 110 ± 4%
[3]; 25 μM
  Cell Viability (%) after 72 h: 19 ± 2%
[3]; 25 μM, 72 h
  reduction of cell viability: ~80%
[4]
  fold improved uptake of F′-GpYEEI: approximately 48 fold
  fold improved uptake of emtricitabine (F′-FTC): ~27 fold
  fold improved uptake of stavudine (F′-d4T): ~36 fold
[5]; 5 μM
  Cell Viability (%) after 24 h: 103 ± 3%
  Cell Viability (%) after 72 h: 108 ± 1%
[5]; 10 μM
  Cell Viability (%) after 24 h: 104 ± 1%
  Cell Viability (%) after 72 h: 94 ± 2%
[5]; 25 μM
  Cell Viability (%) after 24 h: 105 ± 2%
  Cell Viability (%) after 72 h: 76 ± 1%
  reduction of cell survival: 24%
[5]; 50 μM
  Cell Viability (%) after 24 h: 79 ± 1%
  Cell Viability (%) after 72 h: 21 ± 1%
  reduction of cell survival: 87%
[5]; 5 and 10 μM, 24 and 72 h
  cytotoxicity: did not generate any significant cytotoxicity
[6]
  viability at 24 h, 5 µM: 94 ± 1%
  viability at 24 h, 10 µM: 86 ± 1%
  viability at 24 h, 25 µM: 82 ± 1%
  viability at 24 h, 50 µM: 71 ± 1%
  viability at 72 h, 5 µM: 98 ± 3%
  viability at 72 h, 10 µM: 100 ± 1%
  viability at 72 h, 25 µM: 97 ± 1%
  viability at 72 h, 50 µM: 97 ± 3%
[7]; LLC-PK1, 5-50 μM, 72 h
  cytotoxicity: did not generate any significant cytotoxicity
[7]; 5 μM
  Cell Viability (%) after 24 h: 94 ± 1%
  Cell Viability (%) after 72 h: 98 ± 3%
[7]; 10 μM
  Cell Viability (%) after 24 h: 86 ± 1%
  Cell Viability (%) after 72 h: 100 ± 1%
[8]; 5 μM
  Cell Viability (%) after 24 h: 90 ± 1%
  Cell Viability (%) after 72 h: 68 ± 4%
[8]; 10 μM
  Cell Viability (%) after 24 h: 68 ± 4%
  Cell Viability (%) after 72 h: 73 ± 6%
[8]; 25 μM
  Cell Viability (%) after 24 h: 32 ± 0%
  Cell Viability (%) after 72 h: 24 ± 9%
[8]; 25 μM, 24 h
  reduction of cell viability: 68%
[8]; concentrations other than 25 μM, even after 72 h
  cytotoxicity of peptide alone: 10-22%
[9]; 5 μM
  Cell Viability (%) after 24 h: 79 ± 1%
  Cell Viability (%) after 72 h: 102 ± 8%
[9]; 10 μM
  Cell Viability (%) after 24 h: 76 ± 0%
  Cell Viability (%) after 72 h: 101 ± 1%
[9]; 25 μM
  Cell Viability (%) after 24 h: 70 ± 6%
  Cell Viability (%) after 72 h: 81 ± 3%
[9]; 25 μM, 72 h
  reduction of cell viability / cytotoxicity: 19%
[9]; 5, 10, and 25 μM, 24 h
  cytotoxicity of peptide alone: 21-30%
[1]
  viability at 72 h, 10 µM: 105 ± 3%
[2]; normal heart H9C2, 10 μM
  Cell Viability (%) after 24 h: 101 ± 0%
